Laboratory results: US11597748B2, “Peptide having cytoprotective effect against environmental pollutant and use thereof” (CAREGEN CO., LTD., priority 2017, dated 2023)
No end group written: not given here.

Tests used:
[1] = test system: CYP1A1, TNF-a, IL-6, IL-1b, COX-2 mRNA; test: RT-PCR of CYP1A1 and inflammatory molecules induced by TCDD; assay type: cell-based, human; conditions: HaCaT cells; 10 nM TCDD; 50 μM peptide; 6 hours or 24 hours
Description: (§1) HaCaT cells, human keratinocyte cells, were seeded on a 6-well plate at a density of 3×10^5 cells/well and cultured overnight. Subsequently, 10 nM of TCDD and 50 μM of the peptide consisting of an amino acid sequence of SEQ ID NO: 1, 2, or 3 were added to the culture medium. After 30 minutes of reaction, the cells were treated for 6 hours or 24 hours and collected to separate RNA therefrom. After quantifying RNA, cDNA was synthesized using a cDNA synthesis kit (Intron, Korea). Then, polymerase chain reaction (PCR) was performed using a PCR PreMix kit (Intron, Korea) and a primer for each of CYP1A1, TNF-a, IL-6, IL-1 b, and COX-2 shown in Table 4. Then, by running the resultant on a 5% agarose gel, the expression levels of mRNA of the growth factors were compared under the conditions of treating the respective samples, and the results are shown in FIGS. 5A to 5C.

[2] = test system: CYP1A1, TNF-a, IL-6, IL-1b, COX-2 mRNA; test: RT-PCR of CYP1A1 and inflammatory molecules induced by particulate matter; assay type: cell-based, human; conditions: HaCaT cells; 10 nM particulate matter; 50 μM peptide; 6 hours or 24 hours
Description: as §1, with “particulate matter (PM)” for “TCDD”, “PCR” for “polymerase chain reaction (PCR)”, “IL-1b,” for “IL-1 b,”, “5.” for “4.”, “7A” for “5A”, “7C.” for “5C.”

Substance	effect on expressions of CYP1A1 and inflammatory factors induced by TCDD (in words) [1]	effect on expressions of CYP1A1 and inflammatory factors induced by particulate matter (in words) [2]
DVENTS [SEQ ID NO: 3, DVENTS]	inhibiting expressions of CYP1A1 and various inflammatory factors induced by TCDD	inhibiting expressions of CYP1 A1 and various inflammatory factors induced by particulate matter
ILGRWCG [SEQ ID NO: 2, ILGRWCG]	inhibiting expressions of CYP1A1 and various inflammatory factors induced by TCDD	inhibiting expressions of CYP1 A1 and various inflammatory factors induced by particulate matter
KWGGGRY [SEQ ID NO: 1, KWGGGRY]	inhibiting expressions of CYP1A1 and various inflammatory factors induced by TCDD	inhibiting expressions of CYP1 A1 and various inflammatory factors induced by particulate matter
